Tested on: 958667-338-R-J2-PDC tumor spheroids viability
Experiment: Anticancer human tumor 958667-338-R-J2-PDC patient-derived colon adenocarcinoma cell line growth inhibition [PI3K]
Details: spheroids with HUVEC and MSC; for IC50: curve of first compound; for viability, T/C: stronger effect = lower value
Method in brief: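 Tumor cells grown as multi-cell spheroids with HUVEC endothelial cells and MSC fibroblast-like stroma were treated with targeted agents combined with inavolisib, alpelisib, duvelisib or copanlisib. Doses fell in half-log steps from near clinical Cmax, else from 10 microM. Viability was measured.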

[1] = second compound 0.0316 µM, first compound 0.0316 µM
[2] = second compound 0.0316 µM, first compound 0.1 µM
[3] = second compound 0.0316 µM, first compound 0.316 µM
[4] = second compound 0.0316 µM, first compound 1 µM
[5] = second compound 0.0316 µM, first compound 3.16 µM
[6] = second compound 0.0316 µM, first compound 10 µM
[7] = second compound 0.1 µM, first compound 0.0316 µM
[8] = second compound 0.1 µM, first compound 0.1 µM
[9] = second compound 0.1 µM, first compound 0.316 µM
[10] = second compound 0.1 µM, first compound 1 µM
[11] = second compound 0.1 µM, first compound 3.16 µM
[12] = second compound 0.1 µM, first compound 10 µM
[13] = second compound 0.316 µM, first compound 0.0316 µM
[14] = second compound 0.316 µM, first compound 0.1 µM
[15] = second compound 0.316 µM, first compound 0.316 µM
[16] = second compound 0.316 µM, first compound 1 µM
[17] = second compound 0.316 µM, first compound 3.16 µM
[18] = second compound 0.316 µM, first compound 10 µM
[19] = second compound 1 µM, first compound 0.0316 µM
[20] = second compound 1 µM, first compound 0.1 µM
[21] = second compound 1 µM, first compound 0.316 µM
[22] = second compound 1 µM, first compound 1 µM
[23] = second compound 1 µM, first compound 3.16 µM
[24] = second compound 1 µM, first compound 10 µM
[25] = second compound 0.00316 µM, first compound 0.0316 µM
[26] = second compound 0.00316 µM, first compound 0.1 µM
[27] = second compound 0.00316 µM, first compound 0.316 µM
[28] = second compound 0.00316 µM, first compound 1 µM
[29] = second compound 0.00316 µM, first compound 3.16 µM
[30] = second compound 0.00316 µM, first compound 10 µM
[31] = second compound 0.01 µM, first compound 0.0316 µM
[32] = second compound 0.01 µM, first compound 0.1 µM
[33] = second compound 0.01 µM, first compound 0.316 µM
[34] = second compound 0.01 µM, first compound 1 µM
[35] = second compound 0.01 µM, first compound 3.16 µM
[36] = second compound 0.01 µM, first compound 10 µM
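Further: spheroids exposed to compounds for seven days before readout.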

## CC1(C)CCC(CN2CCN(c3ccc(C(=O)NS(=O)(=O)c4ccc(NCC5CCOCC5)c([N+](=O)[O-])c4)c(Oc4cnc5[nH]ccc5c4)c3)CC2)=C(c2ccc(Cl)cc2)C1 + Cc1nc(NC(=O)N2CCCC2C(N)=O)sc1-c1ccnc(C(C)(C)C(F)(F)F)c1
Second compound 0.0316 µM
  IC50: 7.01 µM
Second compound 0.1 µM
  IC50: 6.73 µM
Second compound 0.316 µM
  IC50: 6.72 µM
Second compound 1 µM
  IC50: 6.91 µM
Second compound 3.16 µM
  IC50: 5.32 µM
Second compound 10 µM
  IC50: 4.21 µM
[1]
  viability, T/C: 88.8%
[2]
  viability, T/C: 95%
[3]
  viability, T/C: 83.5%
[4]
  viability, T/C: 123%
[5]
  viability, T/C: 97.1%
[6]
  viability, T/C: 29.1%
[7]
  viability, T/C: 90.4%
[8]
  viability, T/C: 93.2%
[9]
  viability, T/C: 99.4%
[10]
  viability, T/C: 99.8%
[11]
  viability, T/C: 107%
[12]
  viability, T/C: 24.8%
[13]
  viability, T/C: 93.3%
[14]
  viability, T/C: 85.8%
[15]
  viability, T/C: 104%
[16]
  viability, T/C: 99%
[17]
  viability, T/C: 98.5%
[18]
  viability, T/C: 25.7%
[19]
  viability, T/C: 88.9%
[20]
  viability, T/C: 72.6%
[21]
  viability, T/C: 93.3%
[22]
  viability, T/C: 87.6%
[23]
  viability, T/C: 91.1%
[24]
  viability, T/C: 32.5%
Second compound 3.16 µM, first compound 0.0316 µM
  viability, T/C: 89.3%
Second compound 3.16 µM, first compound 0.1 µM
  viability, T/C: 76.8%
Second compound 3.16 µM, first compound 0.316 µM
  viability, T/C: 67%
Second compound 3.16 µM, first compound 1 µM
  viability, T/C: 76.5%
Second compound 3.16 µM, first compound 3.16 µM
  viability, T/C: 66.6%
Second compound 3.16 µM, first compound 10 µM
  viability, T/C: 31.4%
Second compound 10 µM, first compound 0.0316 µM
  viability, T/C: 65.7%
Second compound 10 µM, first compound 0.1 µM
  viability, T/C: 64.6%
Second compound 10 µM, first compound 0.316 µM
  viability, T/C: 55.8%
Second compound 10 µM, first compound 1 µM
  viability, T/C: 61.5%
Second compound 10 µM, first compound 3.16 µM
  viability, T/C: 65.7%
Second compound 10 µM, first compound 10 µM
  viability, T/C: 12%

## C#Cc1c(F)ccc2cc(O)cc(-c3ncc4c(N5CC6CCC(C5)N6)nc(OCC56CCCN5CC(F)C6)nc4c3F)c12 (stereo unspecified) + CC(Nc1ccc2c(c1)OCCn1cc(N3C(=O)OCC3C(F)F)nc1-2)C(N)=O
Second compound 0.00316 µM
  IC50: > 10 µM
Second compound 0.01 µM
  IC50: > 10 µM
Second compound 0.0316 µM
  IC50: 8.56 µM
Second compound 0.1 µM
  IC50: 6.62 µM
Second compound 0.316 µM
  IC50: 3.47 µM
Second compound 1 µM
  IC50: 1.4 µM
[25]
  viability, T/C: 95.2%
[26]
  viability, T/C: 97.9%
[27]
  viability, T/C: 110%
[28]
  viability, T/C: 90.9%
[29]
  viability, T/C: 90.6%
[30]
  viability, T/C: 60.7%
[31]
  viability, T/C: 101%
[32]
  viability, T/C: 120%
[33]
  viability, T/C: 121%
[34]
  viability, T/C: 97.3%
[35]
  viability, T/C: 74.2%
[36]
  viability, T/C: 74.2%
[1]
  viability, T/C: 99.9%
[2]
  viability, T/C: 109%
[3]
  viability, T/C: 100%
[4]
  viability, T/C: 118%
[5]
  viability, T/C: 83.1%
[6]
  viability, T/C: 44.8%
[7]
  viability, T/C: 69.2%
[8]
  viability, T/C: 81%
[9]
  viability, T/C: 77.4%
[10]
  viability, T/C: 84.1%
[11]
  viability, T/C: 71.4%
[12]
  viability, T/C: 37.2%
[13]
  viability, T/C: 69.1%
[14]
  viability, T/C: 62%
[15]
  viability, T/C: 66.7%
[16]
  viability, T/C: 85.6%
[17]
  viability, T/C: 52.4%
[18]
  viability, T/C: 22.5%
[19]
  viability, T/C: 61%
[20]
  viability, T/C: 64.4%
[21]
  viability, T/C: 44.6%
[22]
  viability, T/C: 57.2%
[23]
  viability, T/C: 45%
[24]
  viability, T/C: 25.6%

## CC(Cn1ccc(-c2ccc(C#N)c(Cl)c2)n1)NC(=O)c1cc(C(C)O)[nH]n1 (stereo unspecified) + COc1c(OCCCN2CCOCC2)ccc2c3n(c(=NC(=O)c4cnc(N)nc4)nc12)CCN3
Second compound 0.00316 µM
  IC50: > 10 µM
Second compound 0.01 µM
  IC50: > 10 µM
Second compound 0.0316 µM
  IC50: > 10 µM
Second compound 0.1 µM
  IC50: 7.69 µM
Second compound 0.316 µM
  IC50: < 0.0316 µM
Second compound 1 µM
  IC50: < 0.0316 µM
[25]
  viability, T/C: 109%
[26]
  viability, T/C: 89.7%
[27]
  viability, T/C: 111%
[28]
  viability, T/C: 94.9%
[29]
  viability, T/C: 97.7%
[30]
  viability, T/C: 102%
[31]
  viability, T/C: 83.1%
[32]
  viability, T/C: 83.1%
[33]
  viability, T/C: 85.2%
[34]
  viability, T/C: 81.1%
[35]
  viability, T/C: 104%
[36]
  viability, T/C: 80.4%
[1]
  viability, T/C: 75.3%
[2]
  viability, T/C: 74.6%
[3]
  viability, T/C: 62.8%
[4]
  viability, T/C: 72.4%
[5]
  viability, T/C: 76.7%
[6]
  viability, T/C: 69.9%
[7]
  viability, T/C: 49.5%
[8]
  viability, T/C: 66.2%
[9]
  viability, T/C: 56.2%
[10]
  viability, T/C: 59.2%
[11]
  viability, T/C: 58.5%
[12]
  viability, T/C: 47.6%
[13]
  viability, T/C: 33.6%
[14]
  viability, T/C: 40.9%
[15]
  viability, T/C: 37%
[16]
  viability, T/C: 39.4%
[17]
  viability, T/C: 37.3%
[18]
  viability, T/C: 49.2%
[19]
  viability, T/C: 19.5%
[20]
  viability, T/C: 18.7%
[21]
  viability, T/C: 20.6%
[22]
  viability, T/C: 19.9%
[23]
  viability, T/C: 22.5%
[24]
  viability, T/C: 14.6%

— PubChem BioAssay AID1963963 (Molecular Pharmacology Branch, DTP, NCI, 2024)
